# In patent US20080267948A1, “Croos-B Structure Binding Compounds” (priority 2005, published 2008):
# “Also recorded” adds a separate entry of the source.
# Assays:
# amyloid-β(1-40) E22Q = molecular target: T1, amyloid-β(1-40) E22Q (Homo sapiens, UniProt P05067, E693Q); assay: ELISA binding of tPA to immobilized Aβ after pre-incubation with compounds; settings: for % tPA binding (after compound incubation), Aβ: 1 μg/ml coated Aβ first exposed to 500 μg/ml compound, then 80 nM tPA, control = 100
# T1 construct: For similar ELISA's with DOVA and Aβ(1-40) E22Q, 1 μg/ml DOVA or Aβ was coated; purchased Peptide facility, Dutch Cancer Institute, Amsterdam; host or cells: synthetic peptide
# T1 sequence (P05067 672-711 E693Q): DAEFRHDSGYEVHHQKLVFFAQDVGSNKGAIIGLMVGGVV
# Description: (§1) Compounds were now diluted 10× in PBS/0.1% Tween20 (500 μg/ml compound). […] With this approach a further selection of the compounds was achieved. Now, compounds that at least interact with HB-AGE are selected. With the selection, similar binding assays are performed with misfolded OVA and Aβ. Finally, concentration series of the selected compounds are used in the binding studies.
# heat-denatured ovalbumin = molecular target: T2, heat-denatured ovalbumin (Gallus gallus, UniProt P01012); assay: Thioflavin T fluorescence of ovalbumin and small compounds; set-up: species or system chicken; settings: 1 mg/ml compound, 1 mg/ml OVA
# T2 construct: purchased Sigma A5503
# T2 sequence (P01012 1-386): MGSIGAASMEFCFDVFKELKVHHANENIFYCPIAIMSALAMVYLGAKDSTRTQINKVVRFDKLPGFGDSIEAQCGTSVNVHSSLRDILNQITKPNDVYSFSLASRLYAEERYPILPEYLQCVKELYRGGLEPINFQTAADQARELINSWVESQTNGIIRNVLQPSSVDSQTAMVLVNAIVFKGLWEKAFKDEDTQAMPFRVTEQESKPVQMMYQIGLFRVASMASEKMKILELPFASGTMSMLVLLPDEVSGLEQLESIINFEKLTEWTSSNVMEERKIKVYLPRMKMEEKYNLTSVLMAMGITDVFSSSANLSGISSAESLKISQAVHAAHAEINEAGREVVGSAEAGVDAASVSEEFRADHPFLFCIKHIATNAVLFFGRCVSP
# Description: To establish the enhancement of Thioflavin T fluorescence by ovalbumin preparations, 90 μl of 25 μM ThT-solution in 50 mM Glycine buffer (pH 9.0) was added to 10 μl sample in duplicate wells of black 96-wells plates. Heat-denatured ovalbumin at 1 mg/ml in PBS with no addition, DMSO at a final concentration of 1% v/v, or 1 mg/ml of the compounds listed in Table 7, was used. Compound stocks are 100 mg/ml in DMSO. In addition, ovalbumin at 1 mg/ml with the same additions was first heat denatured and subsequently used in the fluorescence assay. Heat denaturation was according to the protocol given above. Fluorescence of duplicates was measured on a Thermo Fluoroskan Ascent 2.5, at 435 nm excitation and 485 nm emission wavelengths.
# [1] = molecular target: T3, heat-denatured misfolded ovalbumin (DOVA) (Gallus gallus, UniProt P01012); assay: ELISA binding of tPA to immobilized misfolded ovalbumin after pre-incubation with compounds; set-up: species or system chicken; settings: for influence on tPA binding to immobilized misfolded OVA: misfolded OVA first overlayed with compound (concentration series), then tPA; for activity at 500 µg/mL: read-out: % tPA binding (after compound incubation), DOVA
# T3 construct: purchased Sigma A5503
# T3 sequence (P01012 2-386 limits assumed): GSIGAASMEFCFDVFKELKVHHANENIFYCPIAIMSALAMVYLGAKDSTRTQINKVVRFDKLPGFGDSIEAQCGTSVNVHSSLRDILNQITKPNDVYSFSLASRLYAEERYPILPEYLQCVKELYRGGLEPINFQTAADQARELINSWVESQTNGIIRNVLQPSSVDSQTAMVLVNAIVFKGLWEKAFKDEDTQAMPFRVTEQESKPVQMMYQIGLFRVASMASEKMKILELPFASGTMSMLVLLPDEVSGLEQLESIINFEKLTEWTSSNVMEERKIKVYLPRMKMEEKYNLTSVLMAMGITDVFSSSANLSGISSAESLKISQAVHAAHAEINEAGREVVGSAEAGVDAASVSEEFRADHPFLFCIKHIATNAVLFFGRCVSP
# Description: as §1
# tPA/plasminogen = molecular target: T4, tPA/plasminogen (Homo sapiens, UniProt P00750); assay: tPA/plasminogen activation by OVA heated in the presence of compounds (substrate PNAPEP1751); assay type: biochemical; settings: 25 μg/ml OVA, 25 μg/ml compound, […] DMSO
# T4 construct: purchased Boehringer Ingelheim Actilyse
# T4 sequence (P00750 36-562): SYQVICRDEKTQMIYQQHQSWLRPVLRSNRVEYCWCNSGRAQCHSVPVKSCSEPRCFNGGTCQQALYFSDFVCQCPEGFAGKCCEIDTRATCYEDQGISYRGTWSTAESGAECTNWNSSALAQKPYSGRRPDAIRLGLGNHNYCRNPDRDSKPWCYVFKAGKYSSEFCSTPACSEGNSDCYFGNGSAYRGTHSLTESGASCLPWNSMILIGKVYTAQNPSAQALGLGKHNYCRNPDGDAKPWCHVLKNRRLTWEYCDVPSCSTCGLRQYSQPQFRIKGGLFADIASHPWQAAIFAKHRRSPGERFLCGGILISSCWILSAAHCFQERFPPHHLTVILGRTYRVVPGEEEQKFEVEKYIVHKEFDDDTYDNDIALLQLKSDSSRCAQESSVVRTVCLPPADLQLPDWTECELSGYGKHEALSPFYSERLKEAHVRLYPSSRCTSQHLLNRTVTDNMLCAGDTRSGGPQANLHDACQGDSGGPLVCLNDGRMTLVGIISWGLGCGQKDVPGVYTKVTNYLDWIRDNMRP
# Description: Heated OVA, either in PBS/1% DMSO (positive control), or in the same buffer in the presence of 1 mg/ml of the compounds, was used 40-fold diluted in the assay. Negative control was buffer without OVA. […] In addition, it was assessed whether the compounds interfere with absorbance readings at 405 nm, with converted chromogenic substrate. […] The yellow solution is divided over wells of an ELISA plate. […] Signals are compared and related to the control.
# [2] = molecular target: T5, Hb-AGE (glucose-6-phosphate modified human haemoglobin) (Homo sapiens, UniProt P68871+P69905); assay: ELISA binding of tPA to immobilized Hb-AGE, compounds co-incubated with tPA; settings: compound mixed with tPA, control without compound = 100
# T5 construct: purchased Sigma-Aldrich H7379
# T5 sequence (P69905 2-142 limits assumed): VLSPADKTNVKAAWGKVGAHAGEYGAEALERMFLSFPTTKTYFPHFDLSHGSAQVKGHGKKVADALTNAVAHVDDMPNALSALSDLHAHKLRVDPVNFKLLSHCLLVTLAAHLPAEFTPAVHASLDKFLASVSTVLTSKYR
# T5 sequence (P68871 2-147 limits assumed): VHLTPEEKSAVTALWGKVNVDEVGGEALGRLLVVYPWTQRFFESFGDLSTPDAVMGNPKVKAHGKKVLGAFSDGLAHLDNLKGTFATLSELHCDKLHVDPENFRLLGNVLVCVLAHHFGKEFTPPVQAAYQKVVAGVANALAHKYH
# Description: The small compound library is depicted in Tables 4-5. […] Binding experiments were performed in single wells per compound, in a duplicate experiment. Binding data obtained with this duplicate experiment was averaged.
# • 1. […] Coat buffer in control wells. • 2. wash three times with wash buffer • 3. Block all wells with 300 μl 0.5*recommended concentration Roche blocking reagent for 30 minutes at room temperature, with agitation • 4. wash twice • 5. […] Incubate for 30 minutes at room temperature, with agitation • 7. wash five times with TBS/0.1% Tween20 • 8. […] Incubate for 30 minutes at room temperature, with agitation • 10. wash five times with TBS/0.1% Tween20 • 11. Fill wells with 3000× diluted horse raddish peroxidase-labeled polyclonal rabbit anti-mouse antibody (RAMPO, DAKOCytomation) • 12. Incubate for 20 minutes at room temperature, with agitation • 13. Wash five times with TBS/0.1% Tween20 • 14. Wash twice with PBS • 15. Stain with 100 μl TMB, stop with 50 μl 10% H2SO4 • 16. Read absorbance at 450 nm
# ovalbumin = molecular target: T6, ovalbumin (Gallus gallus, UniProt P01012); assay: Transmission electron microscopy of ovalbumin heated in the presence of small compounds; set-up: species or system chicken; settings: 1 mg/ml ovalbumin heated with 1 mg/ml compound
# T6 construct: purchased Sigma A5503
# T6 sequence (P01012 1-386): T2 sequence (P01012 1-386)
# Description: For TEM analyses grids were prepared according to standard procedures. Ovalbumin samples at 1 mg/ml were applied to 100-mesh copper grids with carbon coated Formvar (Merck, Germany), and subsequently washed with PBS and H2O. Grids were applied to droplets of 2% (m/v) methylcellulose with 0.4% (m/v) uranylacetate pH 4. After a 2-minutes incubation grids were dried on a filter. Images were recorded at 80 kV, at suitable magnifications on a JEM-1200EX electron microscope (JEOL, Japan).
# Hb-AGE = molecular target: T7, Hb-AGE (Homo sapiens, UniProt P68871+P69905); assay: ELISA binding of tPA to immobilized Hb-AGE after pre-incubation with compounds; settings: Hb-AGE first overlayed with compound (concentration series), then tPA
# T7 construct: purchased Sigma-Aldrich H7379
# T7 sequence (P69905 2-142 limits assumed): as the sequence (P69905 2-142 limits assumed) above
# T7 sequence (P68871 2-147 limits assumed): as the sequence (P68871 2-147 limits assumed) above
# Description: Compounds were now diluted 10× in PBS/0.1% Tween20 (500 μg/ml compound). […] With the selection, similar binding assays are performed with misfolded OVA and Aβ. Finally, concentration series of the selected compounds are used in the binding studies.
Compound,% tPA binding to Hb-AGE (co-incubation) [2],activity at 500 µg/mL [1],"% tPA binding (after compound incubation), Aβ (amyloid-β(1-40) E22Q)",other results
Cc1ccc(C(=O)[C@@H]2[C@H]3C4COC(O4)C(=O)[C@@H]3[C@H]3C=Cc4ccccc4N32)cc1 (some centres unmarked) [compound 15],,,,"influence on tPA binding to immobilized Aβ (amyloid-β(1-40) E22Q; Aβ first overlayed with compound (concentration series), then tPA): Inhibited tPA binding to immobilized misfolded protein (Aβ); influence on Thioflavin T fluorescence with misfolded OVA (heat-denatured ovalbumin): Inhibition on Thioflavin T fluorescence with misfolded OVA"
Cn1ccc(O)c(C#N)c1=O [compound 51],,,,influence on tPA binding to immobilized misfolded OVA [1]: Stimulated tPA binding to immobilized misfolded protein; influence on tPA/plasminogen activation by OVA pre-heated in the presence of compound (tPA/plasminogen): Inhibition of tPA/plasminogen activation by OVA pre-heated
COc1cc2c(cc1O)CC1c3c(cc(O)c(OC)c3-2)CCN1C (centres unmarked) [compound 53],55%,,,
COc1cc2c(cc1OC)-c1c(OC)c(OC)c(CO)c3c1C(C2)N(C)CC3 (centres unmarked) [compound 71],50%,,,
CN1CCc2cccc3c2C1Cc1ccc(O)c(O)c1-3 (centres unmarked) [compound 85],,135%,,
"COC(=O)[C@H]1[C@H]2C[C@H]3c4[nH]c5ccccc5c4CCN3C[C@@H]2CC[C@@H]1O [compound 126, corynanthine]",,,,influence on tPA binding to immobilized misfolded OVA [1]: Stimulated tPA binding to immobilized misfolded protein; appearance of ovalbumin heated in the presence of compound on TEM image (ovalbumin): No protein visible
COc1ccc2c(c1O)-c1c(OC)c(OC)cc3c1[C@H](C2)N(C)CC3 [compound 138],50%,65%,,
"COc1cc2c(cc1O)-c1c(O)c(OC)cc3c1[C@H](C2)N(C)CC3 [compound 203, Bracteoline]",55%,105%,85%,
"COc1cc2c(cc1OC)-c1c(OC)c(OC)cc3ccnc(c13)C2=O [compound 204, 7-Oxoglaucine]",70%,80%,55%,
"COc1cc2c(Cc3c4c5c(cc(OC)c(OC)c5c5c(OC)c(OC)ccc35)CCN4C)c3c4c(cc(OC)c(OC)c4c2cc1OC)CCN3C [compound 210, dehydroglaucine derivative]",80%,90%,30%,
"COc1cc2c(cc1OC)-c1c(OC)c(OC)c(C=O)c3c1[C@H](C2)N(C)CC3 [compound 213, dehydroglaucine derivative]",60%,105%,210%,
"Br.CC(=O)N1C=C(C2CCCCN2)CCC1 (centres unmarked) [compound 217, Ammophedrine HBr]",,,,influence on tPA binding to immobilized Hb-AGE (Hb-AGE): Inhibited tPA binding to immobilized misfolded protein (Hb-; influence on tPA binding to immobilized misfolded OVA [1]: Inhibited tPA binding to immobilized misfolded protein (Hb-; appearance of ovalbumin heated in the presence of compound on TEM image (ovalbumin; HBr): less OVA aggregates after heating in the presence of the; also recorded: Only small amorphous aggregates like Control
